One experiment deals with T1, OR2AG1 (Homo sapiens, UniProt Q9H205).
T1 sequence (Q9H205 1-316): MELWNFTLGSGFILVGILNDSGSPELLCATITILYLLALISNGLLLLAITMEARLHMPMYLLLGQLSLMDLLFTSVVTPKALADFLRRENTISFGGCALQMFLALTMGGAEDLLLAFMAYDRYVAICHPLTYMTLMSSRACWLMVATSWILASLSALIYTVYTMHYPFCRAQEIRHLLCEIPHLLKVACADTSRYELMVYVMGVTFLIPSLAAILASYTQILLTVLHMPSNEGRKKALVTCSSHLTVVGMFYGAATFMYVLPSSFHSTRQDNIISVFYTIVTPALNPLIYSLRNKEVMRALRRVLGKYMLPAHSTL
Nature of the experiment: fura-2 calcium imaging in native human airway smooth muscle cells; cAMP assay (text prints EC50 […], figure legend […]). In kind it is cell-based.

The next experiment concerns the target T2, OR1D2 (Homo sapiens, UniProt P34982).
T2 sequence (P34982 1-312): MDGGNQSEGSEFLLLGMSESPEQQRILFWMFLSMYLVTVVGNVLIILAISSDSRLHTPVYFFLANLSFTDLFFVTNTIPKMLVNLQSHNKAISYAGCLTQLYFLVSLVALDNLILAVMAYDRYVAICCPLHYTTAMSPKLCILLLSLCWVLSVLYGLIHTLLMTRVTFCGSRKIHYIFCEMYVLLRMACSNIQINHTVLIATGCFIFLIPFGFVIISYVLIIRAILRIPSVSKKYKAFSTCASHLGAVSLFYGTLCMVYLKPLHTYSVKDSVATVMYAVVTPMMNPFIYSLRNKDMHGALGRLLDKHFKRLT
Briefly: fura-2 calcium imaging in native human airway smooth muscle cells; blocked by OR1D2 antagonist undecanal; cAMP assay. In kind it is cell-based.

As a reminder, the EC50 is the midpoint of the concentration-response curve.

As to `CCCCCOC(=O)CCC` [amyl butyrate], at OR2AG1, the EC50 is 253 µM. Consider `CC(C)(C)c1ccc(CCC=O)cc1` [bourgeonal], for which the EC50 at OR1D2 turned out to be 0.504 µM.

(Values after publication PMC4972829, “Olfactory Receptors Modulate Physiological Processes in Human Airway Smooth Muscle Cells” (Frontiers in Physiology, 2016).)
